Where a SMILES comes first, the peptide text is derived from it. [ ]: non-standard residue; d: D form. Oic = O=C(O)[C@@H]1C[C@@H]2CCCC[C@@H]2N1; dTic = O=C(O)[C@H]1Cc2ccccc2CN1; 2Thi = N[C@@H](Cc1cccs1)C(=O)O; Nle = CCCC[C@H](N)C(=O)O; Orn = NCCC[C@H](N)C(=O)O
Key:
BK receptors = test: Radioligand competition binding assay with [3H]BK in rat brain membranes; conditions: for IC50: read-out: IC50, BK receptors, [3H]BK; for IC50 / log[IC50], BK receptors, [3H]BK: pH 6.8, rat brain membranes, 1 nM [3H]BK; for affinity at the BK receptors (in words): D-amino acid substitutions
[1] = In vitro stability in rat plasma; format: in vitro ADME; conditions: rat

Row | Molecule | IC50 (BK receptors) [nM] | log[IC50], BK receptors, [3H]BK (BK receptors) | other results
1 | CC[C@H](C)[C@H](NC(=O)[C@H](CCCNC(=N)N)NC(=O)[C@H](CC(C)C)NC(=O)[C@@H](N)Cc1ccccc1)C(=O)N[C@@H](CCCNC(=N)N)C(=O)N1CCC[C@@H]1C(=O)N[C@@H](CCCCN)C(=O)O [compound 12, H-Phe-Leu-Arg-Ile-Arg-D-Pro-Lys-OH] | > 10000 |  | 
2 | CC[C@H](C)[C@H](NC(=O)[C@H](CCCNC(=N)N)NC(=O)[C@H](CC(C)C)NC(=O)[C@@H](N)Cc1ccccc1)C(=O)N[C@@H](CCCNC(=N)N)C(=O)N1[C@H](C(=O)N[C@@H](CCCCN)C(=O)O)C[C@@H]2CCCC[C@@H]21 [compound 10, H-Phe-Leu-Arg-Ile-Arg-Oic-Lys-OH] (H-FLRIR[Oic]K-OH) | 1500 | −5.82 ± 0.10 | 
3 | CC[C@H](C)[C@H](NC(=O)[C@H](CCCN)NC(=O)[C@H](CC(C)C)NC(=O)[C@@H](N)Cc1ccccc1)C(=O)N[C@@H](CCCN)C(=O)N1CCC[C@H]1C(=O)N[C@@H](CCCN)C(=O)O [compound 6, H-Phe-Leu-Orn-Ile-Orn-Pro-Orn-OH] (H-FL[Orn]I[Orn]P[Orn]-OH) | 510 | −6.29 ± 0.12 | 
4 | CCCC[C@H](NC(=O)[C@H](CCCNC(=N)N)NC(=O)[C@H](CC(C)C)NC(=O)[C@@H](N)Cc1ccccc1)C(=O)N[C@@H](CCCNC(=N)N)C(=O)N1CCC[C@H]1C(=O)N[C@@H](CCCCN)C(=O)O [compound 3, H-Phe-Leu-Arg-Nle-Arg-Pro-Lys-OH] (H-FLR[Nle]RPK-OH) |  | −7.05 ± 0.09 | 
5 | H-FLRIR[2Thi]K-OH [compound 9] | 1000 | −5.99 ± 0.20 | 
6 | CC[C@H](C)[C@H](NC(=O)[C@@H](CCCNC(=N)N)NC(=O)[C@H](CC(C)C)NC(=O)[C@H](N)Cc1ccccc1)C(=O)N[C@@H](CCCNC(=N)N)C(=O)N1CCC[C@H]1C(=O)N[C@@H](CCCCN)C(=O)O [compound 18, H-D-Phe-Leu-D-Arg-Ile-Arg-Pro-Lys-OH] | > 10000 |  | affinity at the BK receptors (in words) (BK receptors): completely abolished affinity
7 | CC[C@H](C)[C@H](NC(=O)[C@H](CCCNC(=N)N)NC(=O)[C@H](CC(C)C)NC(=O)[C@@H](N)Cc1ccccc1)C(=O)N[C@@H](CCCNC(=N)N)C(=O)N1Cc2ccccc2C[C@@H]1C(=O)N[C@@H](CCCCN)C(=O)O [compound 8, H-Phe-Leu-Arg-Ile-Arg-D-Tic-Lys-OH] (H-FLRIR[dTic]K-OH) | > 10000 |  | 
8 | CC[C@H](C)[C@H](NC(=O)[C@H](CCCNC(=N)N)NC(=O)[C@@H](CC(C)C)NC(=O)[C@H](N)Cc1ccccc1)C(=O)N[C@@H](CCCNC(=N)N)C(=O)N1CCC[C@H]1C(=O)N[C@@H](CCCCN)C(=O)O [compound 19, H-D-Phe-D-Leu-Arg-Ile-Arg-Pro-Lys-OH] | > 10000 |  | affinity at the BK receptors (in words) (BK receptors): completely abolished affinity
9 | CCCC[C@H](NC(=O)[C@@H](N)Cc1ccccc1)C(=O)N[C@@H](CCCNC(=N)N)C(=O)N[C@H](C(=O)N[C@@H](CCCNC(=N)N)C(=O)N1CCC[C@H]1C(=O)N[C@@H](CCCCN)C(=O)O)[C@@H](C)CC [compound 2, H-Phe-Nle-Arg-Ile-Arg-Pro-Lys-OH] | 160 | −6.79 ± 0.10 | 
10 | CC[C@H](C)[C@H](NC(=O)[C@H](CCCNC(=N)N)NC(=O)[C@H](CC(C)C)NC(=O)[C@@H](N)Cc1ccccc1)C(=O)N[C@H](CCCNC(=N)N)C(=O)N1CCC[C@H]1C(=O)N[C@@H](CCCCN)C(=O)O [compound 13, H-Phe-Leu-Arg-Ile-D-Arg-Pro-Lys-OH] | 5900 | −5.23 ± 0.12 | 
11 | CCCC[C@H](NC(=O)[C@H](Cc1ccccc1)NC(C)=O)C(=O)N[C@@H](CCCNC(=N)N)C(=O)N[C@@H](CCCC)C(=O)N[C@@H](CCCNC(=N)N)C(=O)N1CCC[C@H]1C(=O)N[C@@H](CCCNC(=N)N)C(=O)O [compound 5, Ac-Phe-Nle-Arg-Nle-Arg-Pro-Arg-OH] (Ac-F[Nle]R[Nle]RPR-OH) |  |  | half-life ([1]; plasma, t1/2 in rat plasma, 37 °C, 24 h study): 3.4 h; remaining at 24 h, 10 mg/mL ([1]; rat plasma): 0%

From article PMC5689068 (ACS chemical neuroscience, 2016)
